Results reported in paper PMC8042770, “Odorant Receptors for Detecting Flowering Plant Cues Are Functionally Conserved across Moths and Butterflies” (Molecular Biology and Evolution, 2020).
Read-outs that look alike come from different tables or passages of the source.

Tests used:
HarmOR63 = HarmOR63 (Helicoverpa armigera, UniProt A0A7T3N0P9); assay: Xenopus oocyte two-electrode voltage clamp, HarmOR63 + Orco; format: cell-based; settings: dose response in oocytes, unit M
Experimental: (§1) In order to expand our analysis on the response properties of HarmORs, we conducted dose–response analyses for the 28 functional HarmORs. […] Six HarmORs (OR3, 22, 48, 50, 56, and 66) could not be activated by any ligand at 10^−5 M. For the other 22 HarmORs, dose–response curves were generated and EC50 values of their major ligands were calculated (fig. 2A and supplementary table S2, Supplementary Material online). The HarmOR repertoire was highly efficient in terpene detection, since the lowest EC50 values were obtained for such compounds. Many of these terpenes have been proposed to be defensive chemicals of plants. […] DMNT is also one of the oviposition deterring compounds found in larval frass of some Lepidoptera species such as S. littoralis ([Anderson et al. 1993]).
(§2) Functional characterization of individual ORs was performed by heterologous expression in Xenopus oocytes combined with a two-electrode voltage-clamp system ([Wang et al. 2010]). […] After incubation in nutrient solution at 18 °C for 3–5 days, the response profile of each oocyte to multiple plant odorants was recorded via a two-electrode voltage clamp (OC-725C oocyte clamp, Warner Instruments, Hamden, CT) at a holding potential of −80 mV. Data were acquired by using a Digidata 1440 A and were analyzed by pCLAMP 10.2 software (Axon Instruments Inc., Union City, CA). […]

HarmOR31 = HarmOR31 (Helicoverpa armigera, UniProt A0A7T3N2E9); assay: Xenopus oocyte two-electrode voltage clamp, HarmOR31 + Orco; format: cell-based
Sequence of HarmOR31 (A0A7T3N2E9 entry or part of it): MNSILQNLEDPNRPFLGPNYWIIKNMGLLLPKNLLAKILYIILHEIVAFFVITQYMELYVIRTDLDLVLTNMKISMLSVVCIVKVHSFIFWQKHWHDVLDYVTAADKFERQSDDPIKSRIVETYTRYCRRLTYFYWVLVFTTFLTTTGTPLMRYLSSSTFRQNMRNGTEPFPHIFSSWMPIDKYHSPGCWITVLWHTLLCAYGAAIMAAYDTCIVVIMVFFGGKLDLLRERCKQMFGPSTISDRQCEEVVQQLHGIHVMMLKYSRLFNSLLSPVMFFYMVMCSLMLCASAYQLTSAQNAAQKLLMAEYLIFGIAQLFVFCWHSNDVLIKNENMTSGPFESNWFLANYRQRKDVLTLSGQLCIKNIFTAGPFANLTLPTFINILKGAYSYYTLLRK
Excerpt: In order to expand our analysis on the response properties of HarmORs, we conducted dose–response analyses for the 28 functional HarmORs. […] Many of these terpenes have been proposed to be defensive chemicals of plants.
Briefly, the full-length gene of each OR and Orco were subcloned into the eukaryotic expression vector pT7TS. cRNAs were generated from linearized expression vectors using the mMESSAGE mMACHINE T7 kit (Ambion, Austin, TX). […] The respective Orcos of different species were used for functional studies of OR42 orthologs except for the four butterfly species (V. tameamea, P. xuthus, D. plexippus, and P. rapae), in which we used the Orco from P. xuthus.
(§3) Stock solutions of each odorant were prepared at 1 M using DMSO as a solvent, and each odorant was diluted in 1× Ringer’s solution to the indicated concentrations for electrophysiological recording. For functional screening of each HarmOR, a panel of 67 odorants belonging to three types of chemical classes: terpenes, aromatics, and aliphatics (short-chain fatty acid) were used (supplementary table S1, Supplementary Material online). For functional studies of OR42 orthologs from different species, six odorants including PAA, benzaldehyde, (E)-2-hexen-1-al, cinnamaldehyde, 2-phenylethanol, and heptanal were used.

HarmOR7 = HarmOR7 (Helicoverpa armigera, UniProt A0A7T3KAD7); assay: Xenopus oocyte two-electrode voltage clamp, HarmOR7 + Orco; format: cell-based
Sequence of HarmOR7 (A0A7T3KAD7 1-411): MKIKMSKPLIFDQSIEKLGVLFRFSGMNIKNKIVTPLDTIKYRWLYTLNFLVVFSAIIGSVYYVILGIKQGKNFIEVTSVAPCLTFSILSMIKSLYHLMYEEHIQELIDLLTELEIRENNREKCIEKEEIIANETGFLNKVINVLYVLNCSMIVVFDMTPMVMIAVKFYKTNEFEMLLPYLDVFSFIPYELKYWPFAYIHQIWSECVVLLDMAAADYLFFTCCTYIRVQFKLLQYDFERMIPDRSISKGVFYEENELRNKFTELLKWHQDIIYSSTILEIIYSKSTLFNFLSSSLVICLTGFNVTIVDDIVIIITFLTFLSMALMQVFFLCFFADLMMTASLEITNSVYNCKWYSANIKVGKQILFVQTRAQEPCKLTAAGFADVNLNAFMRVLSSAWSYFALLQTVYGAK
Experimental: as §1, §2

HarmOR repertoire = assay: Responses of the 28 functional HarmORs across odorant doses (PCA of oocyte currents); format: cell-based, Helicoverpa armigera; settings: odorant 10^−7 M
Excerpt: Vectors quantifying the responses of the 28 ORs to each odorant were projected onto a 3D landscape. This 3D representation captured 78.34% (10^−4 M), 65.11% (10^−5 M), 68.89% (10^−6 M), and 84.52% (10^−7 M) of the variation in the original 28D data set across different odorant concentrations. […] In addition, the capacity of the H. armigera odor space was highly dependent on odorant concentration. As the concentrations of odorants decreased, their positions in the odor space converged, with the ability to discriminate different odorants diminishing.
(§4) Functional characterization of individual ORs was performed by heterologous expression in Xenopus oocytes combined with a two-electrode voltage-clamp system ([Wang et al. 2010]). Briefly, the full-length gene of each OR and Orco were subcloned into the eukaryotic expression vector pT7TS. cRNAs were generated from linearized expression vectors using the mMESSAGE mMACHINE T7 kit (Ambion, Austin, TX). Then, the cRNA mixture of ORx and Orco (27.6 ng each) was injected (Nanoliter 2010, WPI Inc., Sarasota, FL) into oocytes (stage V–VII). The respective Orcos of different species were used for functional studies of OR42 orthologs except for the four butterfly species (V. tameamea, P. xuthus, D. plexippus, and P. rapae), in which we used the Orco from P. xuthus. After incubation in nutrient solution at 18 °C for 3–5 days, the response profile of each oocyte to multiple plant odorants was recorded via a two-electrode voltage clamp (OC-725C oocyte clamp, Warner Instruments, Hamden, CT) at a holding potential of −80 mV. Data were acquired by using a Digidata 1440 A and were analyzed by pCLAMP 10.2 software (Axon Instruments Inc., Union City, CA).
as §3
Graphs and data statistics of OR response spectra, dose responses, EAG, and behavioral experiments were generated by Prism 7 (GraphPad Software, La Jolla, CA). A heat map was generated in Excel 2010 (Microsoft Corporation, WA). […] For tuning breadth analysis, the kurtosis values (K) were calculated by SPSS 22 (SPSS Inc., Chicago, IL) and were used to define the tuning spectra width, where smaller K values represent broader tuning spectra (fig. 1B). […]

HarmOR26 = HarmOR26 (Helicoverpa armigera, UniProt A0A075T633); assay: Xenopus oocyte two-electrode voltage clamp, HarmOR26 + Orco; format: cell-based; settings: dose response in oocytes, unit M printed in b12 only
Sequence of HarmOR26 (A0A075T633 1-408): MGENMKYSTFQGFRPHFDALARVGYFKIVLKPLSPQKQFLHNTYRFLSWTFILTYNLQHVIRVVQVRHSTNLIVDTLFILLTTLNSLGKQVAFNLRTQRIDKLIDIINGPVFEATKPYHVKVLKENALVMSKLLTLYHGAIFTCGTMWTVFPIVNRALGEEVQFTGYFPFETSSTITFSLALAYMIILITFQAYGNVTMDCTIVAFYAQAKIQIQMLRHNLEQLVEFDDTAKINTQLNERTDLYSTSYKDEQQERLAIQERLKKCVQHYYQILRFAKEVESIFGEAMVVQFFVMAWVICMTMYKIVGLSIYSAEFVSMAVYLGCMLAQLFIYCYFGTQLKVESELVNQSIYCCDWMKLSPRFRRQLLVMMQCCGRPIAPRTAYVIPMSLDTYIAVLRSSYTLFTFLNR
Experimental: as §1, §2

HarmOR55 = HarmOR55 (Helicoverpa armigera, UniProt A0A7T3N2G6); assay: Xenopus oocyte two-electrode voltage clamp, HarmOR55 + Orco; format: cell-based; settings: dose response in oocytes, unit M
Sequence of HarmOR55 (A0A7T3N2G6 entry or part of it): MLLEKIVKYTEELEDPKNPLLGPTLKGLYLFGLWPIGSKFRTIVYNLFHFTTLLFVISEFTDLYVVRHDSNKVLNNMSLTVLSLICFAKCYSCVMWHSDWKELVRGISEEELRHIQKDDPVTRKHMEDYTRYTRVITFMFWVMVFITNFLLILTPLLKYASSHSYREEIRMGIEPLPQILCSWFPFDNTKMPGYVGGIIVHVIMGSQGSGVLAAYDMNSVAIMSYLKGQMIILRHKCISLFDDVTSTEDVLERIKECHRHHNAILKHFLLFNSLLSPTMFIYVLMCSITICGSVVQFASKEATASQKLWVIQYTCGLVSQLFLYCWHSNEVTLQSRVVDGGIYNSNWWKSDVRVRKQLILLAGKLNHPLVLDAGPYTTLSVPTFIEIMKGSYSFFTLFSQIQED
Experimental: as §1, §2

HarmOR40 = target: T1, HarmOR40 (Helicoverpa armigera, UniProt A0A7T3KBF4); assay: Xenopus oocyte two-electrode voltage clamp, HarmOR40 + Orco; format: cell-based; settings: HarmOR40; dose response in oocytes; unit M printed in text only; read-out: EC50
T1 sequence (A0A7T3KBF4 1-401): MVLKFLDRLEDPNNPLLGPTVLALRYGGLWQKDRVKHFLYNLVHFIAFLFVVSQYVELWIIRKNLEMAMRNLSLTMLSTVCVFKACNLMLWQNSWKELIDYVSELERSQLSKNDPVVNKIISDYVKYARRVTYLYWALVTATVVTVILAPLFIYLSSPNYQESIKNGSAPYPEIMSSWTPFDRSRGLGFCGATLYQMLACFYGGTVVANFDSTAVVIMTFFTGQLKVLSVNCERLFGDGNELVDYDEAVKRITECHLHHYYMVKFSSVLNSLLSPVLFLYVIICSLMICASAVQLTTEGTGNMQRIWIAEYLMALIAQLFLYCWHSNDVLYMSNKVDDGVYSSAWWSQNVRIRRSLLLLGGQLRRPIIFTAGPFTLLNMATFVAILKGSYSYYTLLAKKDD
Experimental: as §1, §4, §3

HarmOR29 = HarmOR29 (Helicoverpa armigera, UniProt A0A7T3KAG0); assay: Xenopus oocyte two-electrode voltage clamp, HarmOR29 + Orco; format: cell-based; settings: dose response in oocytes, unit M
Sequence of HarmOR29 (A0A7T3KAG0 1-395): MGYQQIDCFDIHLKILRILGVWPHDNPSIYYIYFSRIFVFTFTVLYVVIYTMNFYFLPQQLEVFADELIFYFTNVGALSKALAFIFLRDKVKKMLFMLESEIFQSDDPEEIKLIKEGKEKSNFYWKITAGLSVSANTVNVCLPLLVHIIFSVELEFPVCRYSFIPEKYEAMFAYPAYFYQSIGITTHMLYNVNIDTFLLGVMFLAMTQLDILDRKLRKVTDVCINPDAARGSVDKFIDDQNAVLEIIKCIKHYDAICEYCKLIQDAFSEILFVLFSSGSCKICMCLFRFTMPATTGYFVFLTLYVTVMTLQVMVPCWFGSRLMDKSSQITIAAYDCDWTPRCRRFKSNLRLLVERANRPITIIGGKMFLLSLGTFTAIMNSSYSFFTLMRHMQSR
Experimental: as §1, §2

HarmOR35 = HarmOR35 (Helicoverpa armigera, UniProt A0A7T3N1A8); assay: Xenopus oocyte two-electrode voltage clamp, HarmOR35 + Orco; format: cell-based
Sequence of HarmOR35 (A0A7T3N1A8 entry or part of it): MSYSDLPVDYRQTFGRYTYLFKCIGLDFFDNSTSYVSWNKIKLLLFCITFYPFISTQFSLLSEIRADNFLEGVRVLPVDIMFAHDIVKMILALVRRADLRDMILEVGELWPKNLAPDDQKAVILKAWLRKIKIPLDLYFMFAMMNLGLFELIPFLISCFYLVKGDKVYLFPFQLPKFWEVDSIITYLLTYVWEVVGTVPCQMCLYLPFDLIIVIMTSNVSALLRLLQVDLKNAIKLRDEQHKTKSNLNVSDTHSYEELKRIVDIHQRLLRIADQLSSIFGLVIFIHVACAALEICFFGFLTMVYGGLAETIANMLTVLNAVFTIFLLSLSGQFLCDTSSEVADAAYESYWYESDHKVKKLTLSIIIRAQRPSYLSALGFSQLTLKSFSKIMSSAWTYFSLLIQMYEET
Experimental: as §1, §2

HarmOR25 = HarmOR25 (Helicoverpa armigera, UniProt A0A7T3KAG7); assay: Xenopus oocyte two-electrode voltage clamp, HarmOR25 + Orco; format: cell-based
Sequence of HarmOR25 (A0A7T3KAG7 1-398): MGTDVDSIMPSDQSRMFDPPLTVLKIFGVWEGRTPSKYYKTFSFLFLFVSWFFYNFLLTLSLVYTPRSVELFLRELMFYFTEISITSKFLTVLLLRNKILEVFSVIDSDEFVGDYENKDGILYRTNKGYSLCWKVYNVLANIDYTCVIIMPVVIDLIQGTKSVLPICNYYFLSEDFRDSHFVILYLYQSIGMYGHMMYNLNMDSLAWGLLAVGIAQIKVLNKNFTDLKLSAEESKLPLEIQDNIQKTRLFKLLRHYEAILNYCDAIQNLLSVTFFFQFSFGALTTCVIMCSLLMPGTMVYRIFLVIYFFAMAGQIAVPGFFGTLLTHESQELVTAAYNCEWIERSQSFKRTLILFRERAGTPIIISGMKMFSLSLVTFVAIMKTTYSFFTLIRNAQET
Experimental: as §1, §2

HarmOR60 = target: T2, HarmOR60 (Helicoverpa armigera, UniProt A0A7T3N1B9); assay: Xenopus oocyte two-electrode voltage clamp, HarmOR60 + Orco; format: cell-based
T2 sequence (A0A7T3N1B9 1-391): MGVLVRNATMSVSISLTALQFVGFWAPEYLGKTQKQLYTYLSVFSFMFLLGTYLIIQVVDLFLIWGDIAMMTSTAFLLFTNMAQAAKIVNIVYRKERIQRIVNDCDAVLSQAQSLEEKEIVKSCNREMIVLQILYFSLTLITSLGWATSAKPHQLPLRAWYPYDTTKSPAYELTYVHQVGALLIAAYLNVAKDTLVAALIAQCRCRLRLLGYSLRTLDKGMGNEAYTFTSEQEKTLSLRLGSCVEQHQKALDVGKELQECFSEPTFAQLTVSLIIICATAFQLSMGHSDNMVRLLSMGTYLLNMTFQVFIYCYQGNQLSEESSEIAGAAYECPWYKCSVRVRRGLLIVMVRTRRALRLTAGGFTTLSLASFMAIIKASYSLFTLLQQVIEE
Experimental: as §1
as §4, with “CA). […]” for “CA).”

HarmOR8 = HarmOR8 (Helicoverpa armigera, UniProt A0A7T3N2E2); assay: Xenopus oocyte two-electrode voltage clamp, HarmOR8 + Orco; format: cell-based; settings: dose response in oocytes, unit M
Sequence of HarmOR8 (A0A7T3N2E2 1-406): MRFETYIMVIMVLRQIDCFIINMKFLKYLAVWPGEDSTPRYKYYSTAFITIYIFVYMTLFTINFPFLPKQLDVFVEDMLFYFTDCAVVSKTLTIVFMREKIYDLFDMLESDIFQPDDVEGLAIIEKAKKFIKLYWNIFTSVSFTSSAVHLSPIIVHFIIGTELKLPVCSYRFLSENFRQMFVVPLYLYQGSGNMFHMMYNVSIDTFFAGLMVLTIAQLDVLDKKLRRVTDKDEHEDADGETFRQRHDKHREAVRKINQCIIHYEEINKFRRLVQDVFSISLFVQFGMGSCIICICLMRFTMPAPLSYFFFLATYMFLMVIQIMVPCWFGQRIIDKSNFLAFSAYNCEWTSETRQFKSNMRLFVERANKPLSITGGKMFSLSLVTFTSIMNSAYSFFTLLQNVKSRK
Experimental: as §1, §2

Sequence of HarmOR63 (A0A7T3N0P9 1-407): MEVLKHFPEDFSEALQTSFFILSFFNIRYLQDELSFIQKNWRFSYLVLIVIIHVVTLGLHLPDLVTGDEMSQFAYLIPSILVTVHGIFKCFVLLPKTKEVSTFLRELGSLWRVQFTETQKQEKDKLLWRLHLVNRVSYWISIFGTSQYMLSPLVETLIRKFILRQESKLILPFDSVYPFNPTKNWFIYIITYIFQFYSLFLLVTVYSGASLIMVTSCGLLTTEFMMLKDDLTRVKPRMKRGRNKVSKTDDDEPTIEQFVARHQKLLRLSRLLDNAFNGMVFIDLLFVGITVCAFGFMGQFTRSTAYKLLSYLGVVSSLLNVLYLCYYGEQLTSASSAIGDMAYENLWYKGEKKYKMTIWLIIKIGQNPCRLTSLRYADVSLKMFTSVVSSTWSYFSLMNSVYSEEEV

C=C1CC/C=C(\C)CC[C@@H]2[C@@H]1CC2(C)C [(-)-trans-Caryophyllene]
EC50 (HarmOR63): 88.2 µM

COC(=O)Cc1ccccc1 [Methyl phenylacetate]
EC50 (HarmOR31): 29.5 µM | EC50 (HarmOR7): 107 µM

C=CC(C)(O)CC/C=C(\C)CCC=C(C)C (stereo not shown) [(E)-Nerolidol]
response of the HarmOR repertoire (HarmOR repertoire): still responded | EC50 (HarmOR26): 0.0289 µM | EC50 (HarmOR55): 88.1 µM | EC50 (HarmOR40): 12.5 µM

C=CCc1ccc(O)c(OC)c1 [Eugenol]
EC50 (HarmOR29): 18.9 µM | EC50 (HarmOR35): 42.5 µM | EC50 (HarmOR25; HarmOR25, dose response in oocytes, unit M): 81.6 µM | main ligand of HarmOR25 (HarmOR25; clade E): main ligand | EC50 (HarmOR60; HarmOR60, dose response in oocytes, unit M): 1.72 µM | main ligand of HarmOR60 (HarmOR60; clade B): main ligand

C=C1CC[C@H]2O[C@]2(C)CC[C@@H]2[C@@H]1CC2(C)C [(-)-Caryophyllene oxide]
EC50 (HarmOR63): 52.1 µM

CC(=O)OCc1ccccc1 [Benzyl acetate]
EC50 (HarmOR7; HarmOR7, dose response in oocytes, unit M, read-out: EC50): 60.7 µM

C=CCc1ccc(OC)c(OC)c1 [Methyl eugenol]
EC50 (HarmOR8): 106 µM
